Experimental data from patent publication US20100226931A1, “Compounds for immunopotentiation” (priority 2004, published 2010).

With Clc1ccc(Nc2nnc(Cc3ccncc3)c3ncccc23)cc1 as the compound, how does the melting point read?
Its melting point is 220 to 222 °C.
